From ChEMBL document CHEMBL1921715, “Usabamycins A-C: new anthramycin-type analogues from a marine-derived actinomycete” (Bioorg Med Chem Lett, 2011)
Calls of active or inactive are those of the source. The calls are words filed in the database; no cut-off is given here.

Tests used:
[1] = target: T1, 5-hydroxytryptamine receptor 3A (Homo sapiens) (UniProt P46098); assay: Inhibition of 5HT3 receptor at 25 uM
T1 sequence (whole entry): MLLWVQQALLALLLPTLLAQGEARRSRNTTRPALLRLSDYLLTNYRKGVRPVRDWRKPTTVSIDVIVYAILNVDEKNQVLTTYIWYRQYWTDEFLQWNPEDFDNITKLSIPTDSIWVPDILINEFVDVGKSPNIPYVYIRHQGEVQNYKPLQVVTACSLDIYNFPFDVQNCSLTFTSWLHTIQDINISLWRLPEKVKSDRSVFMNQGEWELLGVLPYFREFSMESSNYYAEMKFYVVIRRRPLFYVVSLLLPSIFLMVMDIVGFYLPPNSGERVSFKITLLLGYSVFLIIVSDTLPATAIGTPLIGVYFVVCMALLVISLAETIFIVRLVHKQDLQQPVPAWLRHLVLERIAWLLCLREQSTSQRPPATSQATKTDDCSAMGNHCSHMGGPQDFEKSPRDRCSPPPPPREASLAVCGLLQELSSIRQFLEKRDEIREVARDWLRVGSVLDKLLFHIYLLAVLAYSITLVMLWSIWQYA

[2] = tested on: HeLa; assay: Cytotoxicity against human HeLa cells; format: functional, cell-based
[3] = target: 5-hydroxytryptamine receptor 2B (Homo sapiens, UniProt P41595); assay: Inhibition of human 5HT2B receptor expressed in cos-7 cells assessed as [3H]5-HT […] after 120 mins; format: cell-based
Sequence of 5-hydroxytryptamine receptor 2B (P41595 whole entry): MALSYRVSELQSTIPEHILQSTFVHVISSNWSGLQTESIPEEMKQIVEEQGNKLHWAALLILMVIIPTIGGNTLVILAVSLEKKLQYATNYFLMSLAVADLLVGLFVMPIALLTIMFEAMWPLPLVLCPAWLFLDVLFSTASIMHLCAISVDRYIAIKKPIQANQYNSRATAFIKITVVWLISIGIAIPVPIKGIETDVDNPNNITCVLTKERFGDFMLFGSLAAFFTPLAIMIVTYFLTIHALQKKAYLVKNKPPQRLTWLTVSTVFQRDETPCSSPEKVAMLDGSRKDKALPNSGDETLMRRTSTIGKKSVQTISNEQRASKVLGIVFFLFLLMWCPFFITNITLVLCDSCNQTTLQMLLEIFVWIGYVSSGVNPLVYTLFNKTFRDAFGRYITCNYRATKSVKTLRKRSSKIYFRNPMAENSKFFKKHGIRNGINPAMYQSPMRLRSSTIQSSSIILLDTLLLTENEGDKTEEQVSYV

[4] = target: T2, 5-hydroxytryptamine receptor 1A (Homo sapiens) (UniProt P08908); assay: Inhibition of 5HT1A receptor at 25 uM
T2 sequence (whole entry): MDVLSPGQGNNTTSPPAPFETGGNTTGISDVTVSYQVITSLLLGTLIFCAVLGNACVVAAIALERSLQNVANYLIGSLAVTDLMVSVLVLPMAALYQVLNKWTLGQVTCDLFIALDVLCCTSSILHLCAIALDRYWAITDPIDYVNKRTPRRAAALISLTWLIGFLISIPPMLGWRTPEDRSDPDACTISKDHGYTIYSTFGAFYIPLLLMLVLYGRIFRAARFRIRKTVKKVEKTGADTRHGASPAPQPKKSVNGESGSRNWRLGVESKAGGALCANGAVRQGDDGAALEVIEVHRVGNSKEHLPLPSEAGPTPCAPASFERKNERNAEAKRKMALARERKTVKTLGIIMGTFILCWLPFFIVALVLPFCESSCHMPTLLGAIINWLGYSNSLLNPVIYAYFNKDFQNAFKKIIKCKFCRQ

## CC/C=C1\C[C@H]2CNc3c(OC)cccc3C(=O)N2C1 [USABAMYCIN A]
[1]
  inhibition: inactive
[2]
  IC50: 107 µM
[3]
  IC50: 12.4 µM
  Ki: 7.89 µM
[4]
  inhibition: inactive

## CC/C=C1\C[C@H]2CNc3ccccc3C(=O)N2C1 [USABAMYCIN C]
[1]
  inhibition: inactive
[2]
  IC50: 102 µM
[3]
  IC50: 8.24 µM
  Ki: 5.24 µM
[4]
  inhibition: inactive

## C/C=C1\C[C@H]2CNc3c(OC)cccc3C(=O)N2C1 [USABAMYCIN B]
[1]
  inhibition: inactive
[2]
  IC50: 104 µM
[3]
  IC50: 8.45 µM
  Ki: 5.38 µM
[4]
  inhibition: inactive
